These results are taken from BindingDB's records for patent US11548890 (Nimbus Saturn, 2023).

This experiment concerns the target Mitogen-activated protein kinase kinase kinase kinase 1 (Homo sapiens, UniProt Q92918). Nature of the experiment: HPK1 Biochemical Enzyme Assay. On the procedure: HPK1 biochemical enzyme assay: HPK1 enzyme inhibition was measured using a microfluidic mobility shift assay. […] Test compounds were titrated in ten point curves (top final assay concentration 3 μM), and preincubated with enzyme/substrate mix for 30 min prior to initiation of the reaction by addition of ATP (1 mM final concentration) and substrate (1 μM final concentration; Carna Biosciences) diluted in assay buffer supplemented by MgCl2 (final assay concentration of 5 mM). Following 60 min incubation at RT, the reaction was terminated by addition of 60 μl/well termination buffer (Carna Biosciences) and signal determination using a Caliper EZ Reader (Perkin Elmer, UK).

Chain of Mitogen-activated protein kinase kinase kinase kinase 1 (Q92918 whole entry): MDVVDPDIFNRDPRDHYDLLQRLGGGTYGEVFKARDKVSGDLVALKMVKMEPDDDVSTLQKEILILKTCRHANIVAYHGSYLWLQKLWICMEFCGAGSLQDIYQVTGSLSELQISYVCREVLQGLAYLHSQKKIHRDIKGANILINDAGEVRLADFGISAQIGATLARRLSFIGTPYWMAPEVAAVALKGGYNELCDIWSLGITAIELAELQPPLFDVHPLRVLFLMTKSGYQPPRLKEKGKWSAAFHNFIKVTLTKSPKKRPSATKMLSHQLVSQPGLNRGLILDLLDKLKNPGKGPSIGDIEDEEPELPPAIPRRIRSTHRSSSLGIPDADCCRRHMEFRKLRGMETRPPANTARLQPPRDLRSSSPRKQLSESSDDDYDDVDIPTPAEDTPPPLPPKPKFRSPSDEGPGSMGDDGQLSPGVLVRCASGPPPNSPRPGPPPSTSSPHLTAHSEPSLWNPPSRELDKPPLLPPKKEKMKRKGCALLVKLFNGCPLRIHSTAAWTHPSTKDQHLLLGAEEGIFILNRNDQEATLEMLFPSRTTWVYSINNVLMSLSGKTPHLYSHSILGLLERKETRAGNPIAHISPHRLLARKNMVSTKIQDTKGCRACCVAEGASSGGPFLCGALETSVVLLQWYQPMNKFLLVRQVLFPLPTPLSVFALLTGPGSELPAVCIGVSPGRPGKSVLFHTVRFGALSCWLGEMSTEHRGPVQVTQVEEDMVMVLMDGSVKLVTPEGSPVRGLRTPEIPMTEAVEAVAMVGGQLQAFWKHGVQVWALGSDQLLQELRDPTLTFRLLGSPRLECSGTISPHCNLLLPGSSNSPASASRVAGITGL

As a reminder, the IC50 is the concentration that inhibits the measured activity by half. The low end stands for higher potency, the high end for lower potency. `CC1=CC2N=CC(c3ccc(Nc4ccc(N5CCC(O)CC5)cn4)c4c3CNC4=O)=C2C=C1` (centres undefined) [US11548890, Compound I-137] had an IC50 below 100 nM. Take `COC1CCN(c2ccc(Nc3ccc(-c4cnc5c(F)cccn45)c4c3C(=O)NC4)nc2)CC1` [US11548890, Compound I-455]: the IC50 entry was “in the range around 550 nM”. The molecule `CC(C)(O)[C@H]1CN(c2ccc(Nc3cnc(-c4cnc5cnccn45)c4c3C(=O)NC4)nc2)CCO1` [US11548890, Compound I-486] returned a 50% inhibitory concentration (IC50) below 100 nM. `CN(C)Cc1nc(Nc2ccc(-c3cnc4ccccn34)c3c2C(=O)NC3)ccc1[C@@H]1CCOC1` [US11548890, Compound I-714]: the 50% inhibitory concentration (IC50) was below 100 nM.
